The results in this text go back to patent US4473497A, “Pharmacologically active peptides” (Eli Lilly and Company, priority 1983, dated 1984).

One experiment deals with mouse (Harlan ND4). As to the kind of experiment: mouse hot plate test (Mouse Jump test). It counts as in vivo. The conditions noted are these: subcutaneous injection, 15 minutes after administration, hot plate 55° C., latency to jump. On the procedure: In the mouse hot plate test, an upright acrylic cylinder comprising, as its base, a hot plate surface which is maintained at 55° C. is used. A mouse (Harlan ND4) is given, by subcutaneous injection, a predetermined amount of test compound dissolved or suspended in a suitable carrier, and, 15 minutes after administration of the test compound, the mouse is placed on the hot plate surface. The latency in seconds until the mouse jumps from the hot plate surface is measured. […] This must occur in a dose range which produces no motor incoordination or incapacitation. The following Table records ED50 results obtained from this test. By the term "ED50 " is meant that dose which produces analgesia in 50% of the mice tested. Analgesia is defined as a response latency in the presence of test compound that is equal to or greater than the control response latency plus two standard deviations. The percent analgesia data are converted to probits, and the ED50 is calculated by regression analysis of the dose-response data. Each dose response curve must have at least four points, and each point is determined using data from a minimum of ten treated mice and ten control mice.
For orientation: Hot-plate and tail-flick tests time the reaction to a heat stimulus.

For a further experiment, the system named is Cox Standard albino mice. As to the kind of experiment: mouse writhing test (acetic acid induced). The settings on record: 0.6% acetic acid i.p. The experiment is classed as in vivo. As to the method:
In the mouse writhing test, a writhing response is defined as a contraction of the abdominal musculature followed by extension of the hind limbs. Acetic acid administered intraperitoneally (10 ml./kg.) at a concentration of 0.6% was used to induce a writhing response. Five Cox Standard albino mice weighing 20-22 g. after being fasted overnight were observed simultaneously for the writhing response. Each mouse was used only once. The observation period was ten minutes and started five minutes following administration of the acetic acid. Inhibition of mouse writhing was calculated from the total number of writhes in the control and test compound-treated groups according to the following formula: [formula]
The dose required to reduce the frequency of writhing by 50% is defined as the ED50 and is calculated by "The Use of Regression Line in Reverse", [Brownlee, K. A., Statistical Theory and Methodology in Science and Engineering, 2nd Ed., New York, John Wiley and Sons (1965)].

On to “L-(N-Methyl)tyrosyl-D-alanylglycine, [N-ethyl-N-(1-benzyl-2-dimethyloxidoamino)ethyl] amide, Diacetate Salt”, for which, in the experiment with mouse (Harlan ND4), the “ED50 in the Mouse Jump test (dose which produces analgesia in 50% of the mice)” value stood at 0.0025 mg/kg. Further, the “ED50 in the Mouse Writhing test (dose reducing frequency of writhing by 50%)” value in the experiment with Cox Standard albino mice (oral administration) is 5.6 mg/kg; in the experiment with Cox Standard albino mice (subcutaneous administration) it was 0.1 mg/kg.
